# According to patent publication US20230355606A1, “LONG-ACTING FORMULATIONS” (Janssen Pharmaceutica NV, priority 2020, published 2023):
# Like-named read-outs stand apart in the source and are kept apart here.
# Tests used:
# M. tuberculosis H37Rv = format: in vivo, Mycobacterium tuberculosis; conditions: for reduction of mean CFU count compared to untreated mice: R10 (5/7); for Mean (SD) log10 M. tuberculosis CFU/lung: rifampin 10 mg/kg, 5/7, gavage, mice
# M. tuberculosis = conditions: mice; cited from earlier work
# [1] = tested on: mycobacterial ATP synthase versus eukaryotic mitochondrial ATP synthase; conditions: cited from earlier work
# Mycobacterium leprae = conditions: M. lepra, mice; cited from earlier work
SMILES,reduction of mean CFU count compared to untreated mice (M. tuberculosis H37Rv; after 4 weeks of treatment),reduction of mean CFU count compared to untreated mice (M. tuberculosis H37Rv; after 8 weeks of treatment),reduction of mean CFU count compared to untreated mice (M. tuberculosis H37Rv; after 12 weeks of treatment) [log10 CFU/lung],Mean (SD) log10 M. tuberculosis CFU/lung (M. tuberculosis H37Rv; Week 4),Mean (SD) log10 M. tuberculosis CFU/lung (M. tuberculosis H37Rv; Week 8),Mean (SD) log10 M. tuberculosis CFU/lung (M. tuberculosis H37Rv; Week 12),minimal dose killing 99% of bacilli (M. tuberculosis) [mg/kg/wk],selectivity index [1],minimal dose killing 99% of bacilli (Mycobacterium leprae) [mg/kg/wk]
"CO[C@H]1/C=C/O[C@@]2(C)Oc3c(C)c(O)c4c(O)c(c(/C=N/N5CCN(C)CC5)c(O)c4c3C2=O)NC(=O)/C(C)=C\C=C\[C@H](C)[C@H](O)[C@@H](C)[C@@H](O)[C@@H](C)[C@H](OC(C)=O)[C@@H]1C [R, rifampin]",approximately 1 log10 CFU/lung,about 2 log10 CFU/lung,~3,3.39 (0.46) log10 CFU/lung,2.74 (0.62) log10 CFU/lung,1.27 (0.85) log10 CFU/lung,,,
COc1nc2ccc(Br)cc2cc1[C@@H](c1ccccc1)[C@@](O)(CCN(C)C)c1cccc2ccccc12 [bedaquiline],,,,,,,30,more than 20000,< 5.0
